Reference: US12509734B2, “Systems and methods to assess microbiomes and treatments thereof” (priority 2013, dated 2025)

System: vaginal microbiota
Experiment: 16S-C&S (broad-spectrum clone and sequence) with and without LB-blocking of acute BV and post-tinidazole lavages (Tables 3C, 3D)
Type: in vivo, human
From the text: Amplicon cloning. Amplicon cloning. Broad-spectrum PCR targets were amplified for varying cycle numbers, typically Cp plus 1 or 2 cycles to achieve a “just visible” product on an agarose ethidium-bromide gel. Amplicons derived from PB primers were sequenced directly with the rationale that any species present at 5-10× others amplified by the same PB primer would generate a single, readable sequence; amplicons from PB primers that were unreadable as uncloned amplicons were cloned after nested PCR. They were amplified to maximum fluorescence or maximum cycles for that primer. Products were cleaned by ultrafiltration with the MONTAGE™ PCR kit UFC7PCR50 (Millipore) or QIAQUICK® PCR purification kit (QIAGEN®). One to three microliters of the 20 μl purified product was ligated into pGEM-T Easy vector using the PGEM-T™ Easy Ligation Kit (Promega) according to the manufacturer's specifications. The ligation reaction was carried out for from 4 hours to overnight at 4° C. Forty microliters of E. coli cells (strain XL1-BLUE®, Stratagene) were electroporated using a BioRad GenePulser and Pulse Controller (set at 2.5 kV, 25 μFD capacitance, and 200 ohms resistance) with 1 μl of the ligation, allowed to recover in LB broth 1 h at 37° C., then plated onto LB agar plus 100 μg/ml ampicillin with 0.1 mM IPTG and 20 μg/ml X-gal and grown overnight at 37° C. White colonies and a few blue control colonies were picked from the plates into 100 μl of 15% glycerol or TE, incubated at 94° C. for 5 m; 2 μl of this was amplified in 8 μl of reaction buffer as described, using primers that flank the cloning site in the vector (pUC-F […] (SEQ ID NO: 88), pUC-R […] (SEQ ID NO: 89); 95° C. (1 m), [95° C. (30 s), 45° C. (30 s), 72° C. (30 s)] for 40 cycles, 72° C. (5 m). Extension times for cloned amplicons from PB primers were adjusted as appropriate for each amplicon size according to Tables 3A-3D. An aliquot of each amplicon was tested by agarose gel electrophoresis.
Sequencing and analysis. Full length amplicons (5 μl) were enzymatically cleaned using a 5 μl solution of 0.1 units of NTPhos thermolabile phosphatase and 1 unit of Exonuclease I (Epicentre Biotechnologies), in 20 mM Tris pH 8.3, 50 mM KCl and 10 mM MgCl2 (1×PCR reaction buffer, Invitrogen), incubated at 37° C. for 15 m, then inactivated at 80° C. for 15 m, and used for sequencing. Mini-libraries were constructed from amplicons with co-dominant species (which generate mixed template reads when uncloned); 17 mini-libraries each averaging 11 sequences were sequenced. Enzymatically cleaned amplicons were sequenced with the same primers used for amplification, or T7 for cloned amplicons (Functional Biosciences, Inc.). Sequences were uploaded to Ribosomal Database Project II using the Pipeline function in MyRDP for trimming, quality scoring, alignment, and identification. Only base calls with PHRED quality scores (Q) above 20 were considered. A small number of high quality sequences were rejected by the website as non-ribosomal and were not considered further in this analysis. Aligned sequences, their closest hits via SeqMatch, and manually selected reference species, were downloaded from myRDP, manually trimmed to common 5′ and 3′ ends, and analyzed with Molecular Evolutionary Genetics Analysis (MEGA4 and MEGA5) software. From this, trees were constructed using the bootstrapped Neighbor-Joining method or the Maximum Composite Likelihood method, and used for species identification.
Compositions determined by 16S-C&S were simply tallies of sequences in each taxa, defined here as those with >97% identity. These tallies were adjusted in libraries from LB-blocked PCR with a correction factor. To determine this factor, the titers of Gardnerella and LB were independently determined with and without blocking by PB-qPCR. Their ratio in the unblocked sample (7×10^−6) was increased in the blocked sample to 0.09, indicating an enrichment of 0.09/7×10^−6=12,600. […]

[1] = post tinidazole lavage, 16S-C&S, Lactobacillaceae clones
[2] = post tinidazole lavage, 16S-C&S, target Bacteroidaceae/uc Prevotellaceae

For `CCS(=O)(=O)CCn1c([N+](=O)[O-])cnc1C` [tinidazole], which “non-LB share of isolates in post-tinidazole sample” value (FIG. 3, B2, LB-blocked) is on record?
The value was 0.003%.

What about the “ID Clones: L. iners” value [1] of the same compound?
The value was “L. iners 83%, L”.

What about the “ID Clones: L. jensenii” value [1] of the same compound?
Its value is “jensenii 17%,”.

What about the Cells/sample (post tinidazole lavage, 16S-C&S, target Actinobacteria: Actinobacteridae) of the same compound?
The Cells/sample was 1.3E+06 Cells/sample.

What about the Cells/sample (post tinidazole lavage, 16S-C&S, target Alpha-Proteobacteria) of the same compound?
Its Cells/sample is 3.4E+04 Cells/sample.

And the Cells/sample [2]?
Its Cells/sample is 3.4E+04 Cells/sample.

And the “ID Clones” value [2]?
Its value is “Bacteroides sp”.

And the Cells/sample (post tinidazole lavage, 16S-C&S, target Beta-Proteobacteria)?
The Cells/sample was 3.4E+04 Cells/sample.

What about the Cells/sample (post tinidazole lavage, 16S-C&S, target Broad-spectrum) of the same compound?
The Cells/sample was 8.4E+09 Cells/sample.

What about the Cells/sample (post tinidazole lavage, 16S-C&S, target Clostridiales Incertae Sedis XI) of the same compound?
Its Cells/sample is 0 Cells/sample.

What about the Cells/sample (post tinidazole lavage, 16S-C&S, target Clostridiales Incertae Sedis XII) of the same compound?
The Cells/sample was 0 Cells/sample.

And the Cells/sample (post tinidazole lavage, 16S-C&S, target Coriobacteridae)?
Its Cells/sample is 0 Cells/sample.

And the Cells/sample (post tinidazole lavage, 16S-C&S, target Cross-family Clostridia)?
Its Cells/sample is 0 Cells/sample.

And the Cells/sample (post tinidazole lavage, 16S-C&S, target Enterobacteriales, Pasteurellales, Pseudomonadaceae)?
The Cells/sample was 3.4E+05 Cells/sample.

And the Cells/sample (post tinidazole lavage, 16S-C&S, target Epsilon-Proteobacteria)?
The Cells/sample was 3.4E+04 Cells/sample.

What about the Cells/sample (post tinidazole lavage, 16S-C&S, target Firmicute: Lactobacillaceae) of the same compound?
The Cells/sample was 8.4E+09 Cells/sample.

And the Cells/sample (post tinidazole lavage, 16S-C&S, target Fusobacterium)?
Its Cells/sample is 0 Cells/sample.

What about the Cells/sample (post tinidazole lavage, 16S-C&S, target Lachnospiracea uc & incertae sedis Clostridium IVa) of the same compound?
Its Cells/sample is 0 Cells/sample.

What about the Cells/sample (post tinidazole lavage, 16S-C&S, target Megasphaera/Dialister/Veillonella) of the same compound?
Its Cells/sample is 0 Cells/sample.

And the Cells/sample (post tinidazole lavage, 16S-C&S, target Mobiluncus)?
Its Cells/sample is 0 Cells/sample.

And the Cells/sample (post tinidazole lavage, 16S-C&S, target Mycoplasmatales)?
Its Cells/sample is 0 Cells/sample.

What about the Cells/sample (post tinidazole lavage, 16S-C&S, target Peptostreptococcaceae) of the same compound?
The Cells/sample was 0 Cells/sample.

And the Cells/sample (post tinidazole lavage, 16S-C&S, target Staphylococcus)?
The Cells/sample was 0 Cells/sample.

And the Cells/sample (post tinidazole lavage, 16S-C&S, target Streptococcus)?
Its Cells/sample is 0 Cells/sample.

What about the Cells/sample (post tinidazole lavage, 16S-C&S, target uc Clostridiales (BVAB283 subset)) of the same compound?
Its Cells/sample is 0 Cells/sample.
